ChEMBL document CHEMBL3507680, “University of Dundee, Gates Library screen for HepG2 cell viability”

test: Human HepG2 cell viability assay in 384 well format; format: toxicity, cell-based; design: dose 125 nL, time 70.5 hour; cytotoxicity at 70.5 h: concentration not given beside the values; settings: HepG2 cells, read-out: Inhibition

SMILES | cytotoxicity at 70.5 h
Cc1n[nH]c2c1C(c1cccnc1)SCC(=O)N2 (configuration not stated) | -13.5%
O=C(CNC(=O)N1CCN(c2cccc(Cl)c2)CC1)Nc1ccccn1 | -9.74%
COc1ccc(CNc2c(N3CCN(C)CC3)c(=O)c2=O)cc1 | -8.39%
Cc1c(OCC(=O)NCc2ccccc2Cl)c(=O)ccn1C | -23.2%
CC(C)(C)n1ncc2c1NC(=O)CSC2c1ccc2c(c1)OCCO2 (configuration not stated) | -13%
CC1CC(=O)c2cc(C(=O)N3CCc4ccccc43)c(=O)[nH]c2C1 (configuration not stated) | -1.11%
C[C@@H](O)CNC(=O)c1nc(Cc2c(Cl)cccc2Cl)no1 | -8.72%
CC(C)CCNC(=O)c1csc(NC2CC2)n1 | -9.92%
CCOC(=O)Cc1csc(NC(=O)c2cc(=O)c(OC)c[nH]2)n1 | 2.05%
CNc1ncc(C(=O)N2CCCC(CO)(CCCOC)C2)cn1 (configuration not stated) | 4.14%
COc1ccc(C)cc1NC(=O)c1coc(C)n1 | -5.37%
C=C(C)COc1cccc(C(=O)NCCCc2nnn[nH]2)c1 | -12.4%
COc1cc(C)cc(C(C(=O)O)N(C)Cc2cnn(C)c2)c1OC (configuration not stated) | 4.79%
Cc1cnc(NCCCN2CCc3ccccc32)nc1 | -3.85%
O=C1N(c2ccccc2)Cc2n[nH]c(=O)n21 | -0.951%
Cc1ccc(C(=O)NCCC2CCN(C)CC2)cc1N(C)S(C)(=O)=O | 24%
CN(C)[C@H]1CCCCN(C(=O)c2cccc(N3CCS(=O)(=O)CC3)c2)C1 | -8.16%
CC(C)n1cc(CN(Cc2ccc(F)cc2)CC2CCCO2)cn1 (configuration not stated) | 15.6%
Cc1cnn(CCCN2C(=O)CCc3ccccc32)c1 | 11.4%
OC1(c2cn(CC3CCN(C4CCSC4)CC3)nn2)CCCC1 (configuration not stated) | 1.14%
COCc1ncc(CN(Cc2ccncc2)Cc2ccc(C)s2)cn1 | -6.86%
COc1cccc(C(=O)Nc2ccc(OC3CCN(C)CC3)cc2)c1 | -4.5%
CCN1CCN(S(=O)(=O)c2ccc(Cc3cc(C)n[nH]c3=O)cc2)CC1 | -10.8%
O=C1N(c2ccc(F)cc2)Cc2n[nH]c(=O)n21 | -2.51%

SMILES | cytotoxicity at 70.5 h
CC1CCN(CCCNC(=O)c2ccc(N(C)S(C)(=O)=O)cc2Cl)CC1 | -4.93%
COCCCn1cnnc1C(C)NC(=O)c1[nH]c2ccc(C)cc2c1C (configuration not stated) | -4.22%
CCCS(=O)(=O)N1CCN(c2cc(-n3ccnc3)nc(C)n2)CC1 | -3.96%
CC(=O)c1cc(CN2C[C@H]3CC[C@@H]2CN(Cc2c(C)noc2C)C3)cs1 | -8.51%
CCSc1nsc(NC(=O)COc2ccc3c(c2)OCO3)n1 | -8.05%
CN(C)S(=O)(=O)N1CC[C@]2(O)CCN(c3ncccn3)C[C@@H]2C1 | -9.31%
O=C(Cc1n[nH]c(-c2cncc(Br)c2)n1)NCc1ccccn1 | -8.81%
Cc1ccc2c(C(=O)N(C)C)cc(-c3cnn(CCO)c3)nc2c1C | -3.4%
CCOCCC(=O)N1CCCC(CO)(CC2CC2)C1 (configuration not stated) | -11%
Cc1ccc2[nH]c(=O)cc(C(=O)NCCCn3nccc3C3CC3)c2c1 | -16%
COC[C@]1(O)CCN(c2cc(N3CCOCC3)ncn2)CC1(C)C | -9.52%
O[C@H]1[C@H](n2cc(CN3CCCC3)nn2)c2ccccc2C12CCNCC2 | -7.31%
COc1ccccc1C(=O)Nc1ccc(OC2CCN(C)CC2)cc1 | -6.64%
O=c1[nH]c(NC2CCCC2)nc2nccc(-c3ccco3)c12 | -8.71%
CCCc1nc(C(=O)N[C@H]2COC[C@@H]2N2CCN(C)CC2)cs1 | -7.8%
CN1CC(c2n[nH]c(=O)n2-c2cccc(Cl)c2)CC1=O (configuration not stated) | -12.8%
Cc1cc(C)cc(S(=O)(=O)NCC2CNCCOC2)c1 (configuration not stated) | -1.55%
O=C(O)CSc1nnc(-c2cn[nH]c2)n1-c1ccccc1Cl | 17.6%
CC(=O)NCCOc1cccc(Br)c1 | 2.45%
COC(=O)c1cc2c(=O)[nH]c(=O)n(CCc3ccccc3)c2nc1C | 4.39%
CCC(Oc1ccc(N(C)S(C)(=O)=O)cc1)C(=O)NC (configuration not stated) | -1.39%
CSc1nccc(N2C[C@@H](CN3CCCCC3)[C@@H](CO)C2)n1 | 27.1%
Cc1cccc(C2CC(=O)Nc3c2c(=O)[nH]n3C(C)C)c1 (configuration not stated) | -11.1%
O=C(NCCNc1cc(N2CCCC2)ncn1)c1cnccn1 | -7.66%

SMILES | cytotoxicity at 70.5 h
CCC(=O)NC(C)c1ccccc1C (configuration not stated) | 0.0127%
C[C@@H]1CN(CCC(=O)N(C)Cc2ccccc2)CC[C@@]1(O)C1CCC1 | 21.4%
CS(=O)(=O)N1CCN(c2ccnc(N3CCCCC3)n2)CC1 | -6.15%
Cc1nc2nc(C)c3c(=O)n(-c4ccn[nH]4)ccc3n2n1 | 10.9%
NC(=O)c1ccc(OCCCN2CCC3(CC2)OCCCC3O)cc1 (configuration not stated) | -1.53%
CCC(C)c1ccc(NC(=O)C2CCN(C(=O)N(C)C)CC2)cc1 (configuration not stated) | -4.2%
Cc1onc(N)c1S(=O)(=O)N1CCCCC1C (configuration not stated) | -2.67%
Cc1cccnc1CN(C)C(C(=O)O)c1ccc(-n2cccn2)cc1 (configuration not stated) | -2.91%
Nc1ccc(C(=O)N2CCCC(C(=O)CCc3ccccc3)C2)cn1 (configuration not stated) | -20%
CC(C)(C)c1cn(CC2CCCN(c3cnc4ccccc4n3)C2)nn1 (configuration not stated) | 0.262%
COCc1nc2ncc3c(=O)n(-c4ccccc4OC)ccc3n2n1 | -5.8%
COc1ncc(CN(CCN(C)C)Cc2ccc(C)s2)cn1 | 12.8%
Cc1nc2ncnn2c2ccn(-c3cccnc3O)c(=O)c12 | -15.9%
CC(C)c1nc(CN(C)Cc2ncccc2C(=O)O)cs1 | 4.17%
COCCN(Cc1ccncc1)C(=O)C1COc2c(cccc2OC)C1 (configuration not stated) | 0.81%
CCc1ccc(C2CC(=O)Nc3c2c(=O)[nH]n3C(C)C)cc1 (configuration not stated) | 0.136%
Cc1cnc(N2CCCC(O)C2)nc1-c1ccnn1C (configuration not stated) | 10.8%
O=C(Cc1ccc(F)cc1)NCCNc1cc(N2CCCC2)ncn1 | 22.2%
Cc1ccc(-c2cc(-c3nc(CN4CCN(C)CC4)no3)n[nH]2)cc1 | 22.4%
Cc1nc(C2CCCN(C(=O)c3ccnc(N(C)C)c3)C2)no1 (configuration not stated) | -3.61%
Cc1cn2c(n1)CCC(NC(=O)Cn1cncn1)C2 (configuration not stated) | -5.67%
Cc1nnc2n1CCN(C(=O)CN(C)Cc1ccccc1)C2 | 19.2%
NS(=O)(=O)c1ccc(C(=O)N2CCCC2c2ccccc2)o1 (configuration not stated) | -3.63%
O=C(CS(=O)(=O)Cc1cc(Cl)c2c(c1)OCO2)N1CCCC1 | -0.922%

SMILES | cytotoxicity at 70.5 h
COCCOc1cccc(CNC(=O)CN2CCN(C)CC2C)c1 (configuration not stated) | 10.3%
CC(C)OCCN1CCN(C(C)c2nc(C3CC3)no2)CC1 (configuration not stated) | 17.9%
CC(=O)N(C)CCCc1cc(-c2ccccc2)no1 | -4.09%
CC1CN(Cc2cc(C#N)ccc2F)CCN1Cc1nccn1C (configuration not stated) | -3.5%
CCN1CCOC(CNCc2ccc(OCc3ccccn3)cc2)C1 (configuration not stated) | -6.17%
CCOc1ncccc1NC(=O)N1CCCC(CNC(N)=O)C1 (configuration not stated) | -8.62%
CCOc1ncccc1NC(=O)N1CCC(CN2CCOCC2)CC1 | -3.11%
Cc1ccc(C(C)N(C)Cc2nc3c(cnn3C)c(=O)[nH]2)s1 (configuration not stated) | -8.32%
O=C(Nc1cccc(CNCc2ccccn2)c1)C1CCCC1 | -4.03%
CC(c1ccccc1Cl)N(C)Cc1nc2c(cnn2C)c(=O)[nH]1 (configuration not stated) | -2.36%
CN(CC(=O)N1CCC(COc2ccccc2)CC1)c1cnccn1 | -0.223%
CC(C(=O)NC(N)=O)N(C)CCCc1cc(-c2ccccc2)no1 (configuration not stated) | -3.63%
CCc1ccc(S(=O)(=O)Nc2ccc(F)cc2C(=O)O)s1 | 5.89%
CC1CN(C)CCN1CC(=O)NCCOc1ccc(Cl)cc1 (configuration not stated) | 11.2%
Clc1cc(CN2CCCCC2Cn2cncn2)c2ncccc2c1 (configuration not stated) | -9.86%
CC(C)Oc1ccc(CNC(=O)CN(C)S(C)(=O)=O)cc1F | -6.43%
CC(C)Oc1ccc(CNC(=O)CCN2C(=O)CCC2=O)cc1F | -3.49%
CCN1CCOC(CNCc2ccccc2OCc2cccnc2)C1 (configuration not stated) | 0.0939%
CC(C)Oc1ccc(CNC(=O)NCc2ccncc2)cc1F | -10.8%
CSCC(=O)N1CCCC(c2cc(C)[nH]n2)C1 (configuration not stated) | -12%
CNc1nc(CNC(=O)Nc2ccc(SC)c(F)c2)cs1 | -1.49%
CNc1nc(CNC(=O)Nc2cccc(-n3ccc(C)n3)c2)cs1 | 0.812%
O=C(NCCNc1ccccn1)N1CCC(O)CC1 | 3.99%
CC(NC(=O)NCCCn1cncn1)c1ccc(C#N)cc1 (configuration not stated) | 1.25%

SMILES | cytotoxicity at 70.5 h
Cc1ccc(C(=O)NCCSCc2cccs2)cn1 | 12.6%
CN(Cc1cnn(C)c1)C(=O)NCCc1ccc2c(c1)OCO2 | -1.01%
Cc1ccc(CNC(=O)N(C)Cc2cnn(C)c2)s1 | -1.07%
CCN(Cc1ccc2c(c1)OCCO2)C(=O)NCCc1cnn(C)c1 | 0.223%
NC(=O)C1CCN(C(=O)NCCNc2ccccn2)CC1 | -1.19%
CCc1nc(CN2CCN(C(=O)c3csnn3)CC2)cs1 | -0.125%
Cc1cnn(CCNCc2cc(C#N)ccc2F)c1 | 18.7%
Cc1cc(NC(=O)CN2CCN(c3nc(C)cs3)C(C)C2)on1 (configuration not stated) | -1.59%
Cc1nn(C)c(C)c1C1CCCN1C(=O)c1ccc(N(C)C)nc1 (configuration not stated) | -0.439%
CCCN(C)S(=O)(=O)N1CCCC1c1ccco1 (configuration not stated) | 1.45%
CN(Cc1cnccn1)S(=O)(=O)N1CCCC1c1ccco1 (configuration not stated) | 1.01%
Cn1cccc1C1CCCCCN1C(=O)c1ccc(NC2CC2)nc1 (configuration not stated) | 12.8%
Cc1cnn(CCNCc2cccc(C#N)c2)c1 | 4.17%
Cc1cnn(CCNCc2ccc(C#N)cc2)c1 | -1.47%
N#Cc1ccc(CNCCn2cccn2)c(F)c1 | 13.7%
Cc1csc(N2CCN(CC(=O)NCc3ccccn3)CC2C)n1 (configuration not stated) | -13.9%
Cc1nc(CN2CCCN(C(=O)c3cnccn3)CC2)cs1 | -3.13%
Cc1nc(CN2CCCC2c2noc(C3CC3)n2)nc2ccccc12 (configuration not stated) | 43.5%
Cc1cc(C)n(CC2CCCN2C(=O)c2cncnc2C)n1 (configuration not stated) | 1.29%
Cn1ccnc1C(NCc1ccc(Br)cc1)c1ccccc1 (configuration not stated) | -0.0759%
Cc1ccc(CNC(c2ccccc2)c2nccn2C)cc1 (configuration not stated) | 22.4%
